Test results published in the NIST ThermoML archive (doi:10.1021/je0497496).
Several values for one entry are separate records, joined by “and”; a condition that tells them apart may be missing. Equal entries are not always repeated.

Details: buoyancy

N#N [nitrogen]
Fluid (supercritical or subcritical phases)
Details	mass density [kg/m3]
233.02 K, 506.32 kPa	7.36302
233.02 K, 1007.1 kPa	14.7253
233.02 K, 2000.9 kPa	29.5563
233.02 K, 3001.4 kPa	44.779
233.02 K, 5030.2 kPa	76.3292
233.02 K, 5501 kPa	83.7756
233.03 K, 506.34 kPa	7.36678
233.03 K, 4002.6 kPa	60.2496
253.36 K, 3010.1 kPa	40.8167
253.36 K, 5651.9 kPa	77.5333
253.37 K, 158.12 kPa	2.1053
253.37 K, 1025.2 kPa	13.7338
253.37 K, 5051.9 kPa	69.1481
253.38 K, 158.09 kPa	2.10982
253.38 K, 2061.7 kPa	27.8018
253.38 K, 4007.1 kPa	54.5977
273.05 K, 1000.4 kPa	12.3984
273.06 K, 500.06 kPa	6.18643
273.06 K, 500.07 kPa	6.19019
273.06 K, 500.09 kPa	6.18538
273.06 K, 2000 kPa	24.878
273.06 K, 3000.1 kPa	37.4313
273.06 K, 4000 kPa	50.0451
273.06 K, 5000.4 kPa	62.6679
273.06 K, 5500 kPa	68.9746
293.02 K, 5015.1 kPa	58.0251
293.03 K, 109.97 kPa	1.26716
293.03 K, 1037 kPa	11.9492
293.03 K, 2014 kPa	23.2508
293.03 K, 3106.2 kPa	35.9063
293.03 K, 3996.5 kPa	46.2267
293.03 K, 5611.3 kPa	64.8959
293.04 K, 109.35 kPa	1.25784
313.12 K, 508.1 kPa	5.46882
313.12 K, 508.11 kPa	5.46814
313.12 K, 1000.3 kPa	10.7709
313.12 K, 1999.8 kPa	21.5387
313.12 K, 3999.9 kPa	43.0379
313.12 K, 5000.1 kPa	53.7535
313.13 K, 2999.7 kPa	32.2955
313.13 K, 5500 kPa	59.0903
333.12 K, 147.29 kPa	1.48909
333.12 K, 147.34 kPa	1.48309
333.12 K, 1049 kPa	10.6026
333.12 K, 2020.6 kPa	20.4085
333.12 K, 3039 kPa	30.6553
333.12 K, 4001.5 kPa	40.3032
333.12 K, 5029.1 kPa	50.5504
333.12 K, 5511.3 kPa	55.3242
353.31 K, 500.05 kPa	4.76148
353.31 K, 500.09 kPa	4.76373
353.31 K, 1001.8 kPa	9.53854
353.31 K, 4000.7 kPa	37.8636
353.32 K, 500.08 kPa	4.76448
353.32 K, 2000 kPa	19.0116
353.32 K, 3001.8 kPa	28.4762
353.32 K, 4999.9 kPa	47.189
353.32 K, 5500 kPa	51.8318

O [water]
Liquid
Details	mass density
273.62 K, 105.71 kPa	999.859 kg/m3
273.62 K, 1225.7 kPa	1000.42 kg/m3
273.63 K, 105.71 kPa	999.82 kg/m3
273.63 K, 2307.2 kPa	1001.02 kg/m3
273.63 K, 3781.6 kPa	1001.68 kg/m3
273.63 K, 4990.1 kPa	1002.27 kg/m3
292.94 K, 1063.5 kPa	998.673 kg/m3
292.94 K, 2097.6 kPa	999.18 kg/m3
292.94 K, 3109.3 kPa	999.633 kg/m3
292.94 K, 4139.9 kPa	1000.06 kg/m3 and 1000.08 kg/m3
292.95 K, 109.3 kPa	998.268 kg/m3
302.91 K, 110.01 kPa	995.77 kg/m3
302.91 K, 2049.8 kPa	996.571 kg/m3
302.91 K, 4030.1 kPa	997.451 kg/m3
302.92 K, 1005.9 kPa	996.106 kg/m3
312.96 K, 345.05 kPa	992.42 kg/m3
312.96 K, 1195.1 kPa	992.749 kg/m3
312.96 K, 2093.1 kPa	993.139 kg/m3
312.96 K, 3064.5 kPa	993.609 kg/m3
312.96 K, 4141.2 kPa	994.071 kg/m3
